Assay [1] deals with NQO1 activity in Hepa1c1c7 cells. Kind of assay: NAD(P)H: quinone oxidoreductase-1 (NQO1) enzyme induction assay (in vitro). It counts as cell-based, mouse. Conditions: about 48 hr, ratio from the base without the compound; for fold induction at 0.4 µM: Mus musculus, Hepa-1c1c7, NQO1 activity upon addition of 400 nM of test compound. On the procedure:
Experimental Example 2: NAD(P)H: Quinone Oxidoreductase-1 (NQO1) Enzyme Induction Assay (In Vitro)
The NQO1 assay was performed based on a previous report (Methods in Enzymology 2004; 382: 243-258). Hepa1c1c7 cells (mouse hepatocyte cell line, ATCC, cat. no. CRL-2026) were cultured in D-MEM medium containing 10% FBS and 1% penicillin/streptomycin (5% CO2, 37° C.), and seeded into 96-well plates (Corning REF. 353072) at 1×10^4 cells/well. A portion of the wells were prepared with medium only for background measurement without seeding cells. The next day, 400 nM of the test compound (0.004% of the final concentration in DMSO) dissolved in DMSO was added thereto, and the wells were incubated for about 48 hr. A well without adding the test compound was prepared for base activity assay in part.
Cell lysate (solution containing 0.8% digitonin, 2 mM EDTA), reaction solution (solution containing 25 mM Tris-HCl, 0.07% albumin, 0.01% Tween-20, 2 U/mL glucose-6-phosphate dehydrogenase, 5 μM flavin adenine dinucleotide, 1 μM glucose-6-phosphate, 30 μM nicotinamide adenine dinucleotide phosphate, 0.03% 3-(4,5-dimethyl-2-thiazolyl)-2,5-diphenyltetrazolium bromide (MTT), and 50 μM menadione), stop solution (solution containing 0.3 mM dicoumarol and 5 mM potassium dihydrogen phosphate, pH 7.4) were prepared. After the medium was removed, 50 μL of the cell lysate was added and incubated at 37° C. for 10 minutes, followed by shaking at room temperature for 10 minutes. 200 μL of reaction solution was added thereto, and allowed to stand for 5 minutes at room temperature. 50 μL of the stop solution was added thereto, and absorbance was measured at 610 nm on a SpectraMax PLUS384 (Molecular devices) or POWERSCAN HT (DS Pharma Biomedical). The test results were analyzed in Excel, and the NQO1 activity upon addition of 400 nM of test compound was calculated as a ratio from the base without the compound.
The results of each test compound in this test are shown in the following Table 2 (A: 5<NQO1 activity ratio, B: 3<NQO1 activity ratio 5, C: 1.5<NQO1 activity ratio 3).

For assay [2], the target named is GST-fused human Keap1 (amino acid residues: 325-642) protein (Homo sapiens (Human), UniProt Q14145). Kind of assay: FP assay (in vitro): inhibition of binding between Nrf2 and Keap1 by fluorescence polarization. Conditions: 20 nM GST-fused human Keap1, 10 nM FITC-labeled Nrf2 peptide, 2 hr at room temperature. On the procedure:
Experimental Example 1: FP Assay (In Vitro)
The inhibitory activity of test compounds on the binding between Nrf2 and Keap1 was determined by fluorescence polarization. A solution of 50 mM Tris-HCl pH.8.0 (NACALAI, REF: 06938-15), and 5 mM DTT (SIGMA-ALDRICH, REF: 646563-10X.5 mL) was used as a buffer solution. 8 μL of a buffer solution containing 40 nM GST-fused human Keap1 (amino acid residues: 325-642) protein (Protein tech, REF: Ag0779) was taken in a black 384-well plate (final concentration 20 nM), and 4 μL of the test compound solution prepared to each concentration in buffer solution was added thereto. A well containing a portion of the buffer solution without Keap1 was placed as a negative control. A well with no compound was used as a positive control. 40 nM of FITC-labeled Nrf2 peptide (FITC-X-LQLDEETGEFLPIQ (X=ε-Acp), Peptide Institute Inc.) was added thereto (10 nM final concentration). The wells were incubated at room temperature for 2 hr, and then fluorescence polarization was measured with a plate reader SPECTRAMAX Paradigm (Molecular devices) at excitation wavelength of 485 nm and fluorescence wavelength of 535 nm. The fluorescence polarization of the negative control was set to 100% inhibition and that of the positive control to 0% inhibition, and the inhibitory rate upon addition of the test compound was calculated using the following formula.
In general terms: Fluorescence polarisation rises when a labelled molecule tumbles more slowly, as on binding a larger partner.

The source of these data is patent US20250296939A1, “BENZOTHIOPHENE COMPOUND” (Kyoto Pharmaceutical Industries, Ltd., priority 2022, published 2025).

GST-fused human Keap1 (amino acid residues: 325-642) protein, sequence (Q14145 325-624 limits assumed): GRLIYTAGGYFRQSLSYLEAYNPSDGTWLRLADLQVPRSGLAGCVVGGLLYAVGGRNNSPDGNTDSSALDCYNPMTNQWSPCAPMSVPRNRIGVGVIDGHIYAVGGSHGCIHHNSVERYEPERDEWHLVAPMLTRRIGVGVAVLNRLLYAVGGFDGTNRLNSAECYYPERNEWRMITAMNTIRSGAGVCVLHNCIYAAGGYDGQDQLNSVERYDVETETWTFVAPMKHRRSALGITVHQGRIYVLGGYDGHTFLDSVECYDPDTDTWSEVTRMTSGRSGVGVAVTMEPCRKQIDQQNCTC

One may read the fold induction as the signal under treatment as a multiple of the control signal. By IC50 is commonly meant the concentration that inhibits the measured activity by half. On to `CC[C@@H]1CN(Cc2cc([C@@H](CC(=O)O)c3ccc4c(nnn4CC(F)(F)F)c3C)cc3ccsc23)Cc2nc(O)ccc2O1` (single isomer, unassigned) [Example 27], for which the fold induction at 0.4 µM in assay [1] is more than 5. Besides, the IC50 in assay [2] was in the range of 10 to 30 nM.
In assay [2], `CC[C@@H]1CN(Cc2cc([C@@H](CC(=O)O)c3ccc4c(nnn4CC(F)(F)F)c3C)cc3ccsc23)Cc2nc(O)ccc2O1` (single isomer, unassigned) [Example 28] had an IC50 of 10 to 30 nM.
For the compound `CC[C@@H]1CN(Cc2cc([C@@H](CC(=O)O)c3ccn4c(C)nnc4c3C)cc3ccsc23)Cc2nc(O)ccc2O1` (single isomer, unassigned) [Example 52, (3R*)-3-(3,8-Dimethyl[1,2,4]triazolo[4,3-a]pyridin-7-yl)-3-(7-{[(2R)-2-ethyl-7-hydroxy-2,3-dihydropyrido[2,3-f][1,4]oxazepin-4(5H)-yl]methyl}-1-benzothiophen-5-yl)propanoic acid], the fold induction at 0.4 µM in assay [1] was 3 to 5. In addition, in assay [2], the IC50 is 30 to 300 nM.
In the case of `CC[C@@H]1CN(Cc2cc([C@@H](CC(=O)O)c3ccn4c(C)nnc4c3C)cc3ccsc23)Cc2nc(O)ccc2O1` (single isomer, unassigned) [Example 53, (3S*)-3-(3,8-Dimethyl[1,2,4]triazolo[4,3-a]pyridin-7-yl)-3-(7-{[(2R)-2-ethyl-7-hydroxy-2,3-dihydropyrido[2,3-f][1,4]oxazepin-4(5H)-yl]methyl}-1-benzothiophen-5-yl)propanoic acid], the activity ratio entry in assay [1] (NQO1 activity upon addition of 400 nM of test compound) is reported as “B (B: 3<NQO1 activity ratio 5)”. Besides, in assay [2], the IC50 lay within 10 to 30 nM.
On to `Cc1c(C(CC(=O)O)c2cc(CN3Cc4nc(O)ccc4OC4(CC4)[C@H]3C)c3sccc3c2)ccc2c1nnn2C` (single isomer, unassigned) [Example 58, (3R*)-3-(1,4-Dimethyl-1H-benzotriazol-5-yl)-3-(7-{[(3′R)-7′-hydroxy-3′-methyl-3′H-spiro[cyclopropane-1,2′-pyrido[2,3-f][1,4]oxazepin]-4′ (5′H)-yl]methyl}-1-benzothiophen-5-yl)propanoic acid], for which, in assay [1], the fold induction at 0.4 µM was 1.5 to 3. The 50% inhibitory concentration (IC50) in assay [2] was in the range of 300 to 3000 nM.
`Cc1c(C(CC(=O)O)c2cc(CN3Cc4nc(O)ccc4OC4(CC4)[C@H]3C)c3sccc3c2)ccc2c1nnn2C` (single isomer, unassigned) [Example 59, (3S*)-3-(1,4-Dimethyl-1H-benzotriazol-5-yl)-3-(7-{[(3′R)-7′-hydroxy-3′-methyl-3′H-spiro[cyclopropane-1,2′-pyrido[2,3-f][1,4]oxazepin]-4′ (5′H)-yl]methyl}-1-benzothiophen-5-yl)propanoic acid] displayed a 50% inhibitory concentration (IC50) in assay [2] of 300 to 3000 nM.
For the compound `Cc1c(C(CC(=O)O)c2cc(CN3Cc4nc(O)ccc4OC4(CC4)[C@@H]3C)c3sccc3c2)ccc2c1nnn2C` (single isomer, unassigned) [Example 60, (3R*)-3-(1,4-Dimethyl-1H-benzotriazol-5-yl)-3-(7-{[(3′S)-7′-hydroxy-3′-methyl-3′H-spiro[cyclopropane-1,2′-pyrido[2,3-f][1,4]oxazepin]-4′(5′H)-yl]methyl}-1-benzothiophen-5-yl)propanoic acid], the fold induction at 0.4 µM in assay [1] was more than 5. This compound also registered an IC50 in assay [2] of 30 to 300 nM.
Take `Cc1c(C(CC(=O)O)c2cc(CN3Cc4nc(O)ccc4OC4(CC4)[C@@H]3C)c3sccc3c2)ccc2c1nnn2C` (single isomer, unassigned) [Example 61, (3S*)-3-(1,4-Dimethyl-1H-benzotriazol-5-yl)-3-(7-{[(3′S)-7′-hydroxy-3′-methyl-3′H-spiro[cyclopropane-1,2′-pyrido[2,3-f][1,4]oxazepin]-4′ (5′H)-yl]methyl}-1-benzothiophen-5-yl)propanoic acid]: the IC50 in assay [2] lay in the range of 30 to 300 nM.
For `CC[C@@H]1CN(Cc2cc(C(CC(=O)O)c3ccc4c(nnn4C)c3C)cc3ccsc23)Cc2ncc(O)cc2O1` (single isomer, unassigned) [Example 65, (3R*)-3-(1,4-Dimethyl-1H-benzotriazol-5-yl)-3-(7-{[(2R)-2-ethyl-8-hydroxy-2,3-dihydropyrido[2,3-f][1,4]oxazepin-4(5H)-yl]methyl}-1-benzothiophen-5-yl)propanoic acid], the fold induction at 0.4 µM in assay [1] was more than 5. In addition, in assay [2], the IC50 was in the range of 30 to 300 nM.
For `CC[C@@H]1CN(Cc2cc(C(CC(=O)O)c3ccc4c(nnn4C)c3C)cc3ccsc23)Cc2ncc(O)cc2O1` (single isomer, unassigned) [Example 66, (3S*)-3-(1,4-Dimethyl-1H-benzotriazol-5-yl)-3-(7-{[(2R)-2-ethyl-8-hydroxy-2,3-dihydropyrido[2,3-f][1,4]oxazepin-4(5H)-yl]methyl}-1-benzothiophen-5-yl)propanoic acid], in assay [2], the IC50 lay within 30 to 300 nM.
As to `Cc1c([C@H](CC(=O)O)c2cc(CN3Cc4nc(O)ccc4CC(C4CC4)C3)c3sccc3c2)ccc2c1nnn2C` (single isomer, unassigned) [Example 88, (3R)-3-(7-{[(6S*)-6-Cyclopropyl-2-hydroxy-5,6,7,9-tetrahydro-8H-pyrido[2,3-c]azepin-8-yl]methyl}-1-benzothiophen-5-yl)-3-(1,4-dimethyl-1H-benzotriazol-5-yl)propanoic acid], the fold induction at 0.4 µM in assay [1] is more than 5. In assay [2], this compound yielded a 50% inhibitory concentration (IC50) of 30 to 300 nM.
`Cc1c([C@H](CC(=O)O)c2cc(CN3Cc4nc(O)ccc4CC(C4CC4)C3)c3sccc3c2)ccc2c1nnn2C` (single isomer, unassigned) [Example 89, (3R)-3-(7-{[(6R*)-6-Cyclopropyl-2-hydroxy-5,6,7,9-tetrahydro-8H-pyrido[2,3-c]azepin-8-yl]methyl}-1-benzothiophen-5-yl)-3-(1,4-dimethyl-1H-benzotriazol-5-yl)propanoic acid]: the IC50 in assay [2] lay in the range of 30 to 300 nM.
With `Cc1c([C@H](CC(=O)O)c2cc(CN3Cc4nc(O)ccc4CC(C4CC4)C3)c3sccc3c2)cnc2c1nnn2C` (single isomer, unassigned) [Example 90, (3R)-3-(7-{[(6R*)-6-Cyclopropyl-2-hydroxy-5,6,7,9-tetrahydro-8H-pyrido[2,3-c]azepin-8-yl]methyl}-1-benzothiophen-5-yl)-3-(3,7-dimethyl-3H-[1,2,3]triazolo[4,5-b]pyridin-6-yl)propanoic acid], the fold induction at 0.4 µM in assay [1] is more than 5. For the same compound, in assay [2], the IC50 lay within 30 to 300 nM.
In assay [2], `Cc1c([C@H](CC(=O)O)c2cc(CN3Cc4nc(O)ccc4CC(C4CC4)C3)c3sccc3c2)cnc2c1nnn2C` (single isomer, unassigned) [Example 91, (3R)-3-(7-{[(6S*)-6-Cyclopropyl-2-hydroxy-5,6,7,9-tetrahydro-8H-pyrido[2,3-c]azepin-8-yl]methyl}-1-benzothiophen-5-yl)-3-(3,7-dimethyl-3H-[1,2,3]triazolo[4,5-b]pyridin-6-yl)propanoic acid] had an IC50 of 30 to 300 nM.
Turning to `CC[C@@H]1CN(Cc2cc([C@H](CC(=O)O)c3ccc4c(nnn4C)c3C)cc3ccsc23)Cc2nc(O)ccc2O1` [Example 1, (3S)-3-(1,4-Dimethyl-1H-benzotriazol-5-yl)-3-(7-{[(2R)-2-ethyl-7-hydroxy-2,3-dihydropyrido[2,3-f][1,4]oxazepin-4(5H)-yl]methyl}-1-benzothiophen-5-yl)propanoic acid], in assay [1], the fold induction at 0.4 µM was more than 5. In assay [2], the IC50 lay in the range of 10 to 30 nM.
`CC[C@@H]1CN(Cc2cc([C@H](c3ccc4c(nnn4C)c3C)C(C)(C)C(=O)O)cc3ccsc23)Cc2nc(O)ccc2O1` [Example 12, (3R)-3-(1,4-Dimethyl-1H-benzotriazol-5-yl)-3-(7-{[(2R)-2-ethyl-7-hydroxy-2,3-dihydropyrido[2,3-f][1,4]oxazepin-4(5H)-yl]methyl}-1-benzothiophen-5-yl)-2,2-dimethylpropanoic acid]: in assay [2], the IC50 was 300 to 3000 nM.
